Measured values from patent publication US7304090B2, “Inhibition of the cystic fibrosis transmembrane conductance regulator chloride channel” (The University of Bristol, priority 2000, dated 2007).

Experiments:
wild-type human CFTR = target: T1, wild-type human CFTR (Homo sapiens, UniProt P13569); assay: CFTR Cl− channels recorded in excised inside-out membrane patches from C127 cells (patch-clamp); format: biochemical
T1 construct: expressed in transfected cells
Experimental: For electrophysiological experiments, we used mouse mammary epithelial cells (C127 cells) stably expressing wild-type human CFTR (12). C127 cells expressing wild-type CFTR were cultured as previously described (10). Cells were seeded onto glass coverslips and used within 48 h.
The established sign convention was used throughout; currents produced by positive charge moving from intra- to extracellular solutions (anions moving in the opposite direction) are shown as positive currents.
[…] […] All experiments were conducted at 37° C.
PKA was maintained in the intracellular solution for the duration of experiments. Unless otherwise stated, voltage was −50 mV.
In time course studies, each point is the average current for a 4 s period with data points collected continuously; no data were collected while solutions were changed. Average current (I) for a specific intervention was determined as the average of all the data points collected during the intervention. […] Mean data were fitted to a linear form of equation (1) using linear least-squares regression to yield Ki and n values.
To measure single-channel current amplitude (i), Gaussian distributions were fitted to current amplitude histograms. For open probability (Po) and kinetic analyses, lists of open and closed times were created using a half-amplitude crossing criterion for event detection. Transitions <1 ms in duration were excluded from the analyses. Po was calculated using the equation: Po=(T1+T2+ . . . +TN)/(NTtot), (2) where N is the number of channels; Ttot is the total time analysed, and T1 is the time that one or more channels are open, T2 is the time two or more channels are open and so on. Only membrane patches that contained a single active channel were used for single-channel kinetic analyses.
To investigate whether inhibition of CFTR by fluorescein derivatives was voltage dependent, we used voltage ramp protocols. Macroscopic current-voltage (I-V) relationships were obtained in the absence and presence of fluorescein derivatives by averaging currents generated by 15-30 ramps of voltage each of 2 s duration; holding voltage was −50 mV. Basal currents recorded in the absence of PKA and ATP were subtracted from those recorded in the absence and presence of fluorescein derivatives to determine the effect of these agents on CFTR Cl^− currents.

[1] = system: Type I Madin-Darby canine kidney (MDCK) cells; assay: Cyst growth of MDCK cells in collagen gels with cAMP agonists; format: cell-based; conditions: for cyst volume: day 21 vs day 12; for size of cysts (phase-contrast): days 12 to 21
Experimental: (§1) For cyst growth and cell proliferation experiments, we used Type I Madin-Darby canine kidney (MDCK) cells. We chose Type I MDCK cells because they form cysts when grown in collagen gels in the presence of cAMP agonists (26) and because they express the CFTR Cl^− channel (27). MDCK cells were cultured in MDCK media (a 1:1 mixture of Dulbecco's Modified Eagle Medium (DMEM) and Ham's F-12 nutrient medium supplemented with 100 U ml^−1 penicillin, and 100 μg ml^−1 streptomycin and either 10% fetal bovine serum (FBS; cyst growth) or 5% FBS and 1% insulin-transferrin-selenium-X (ITS-X) supplement (cell proliferation); all from Life Technologies Ltd, Paisley, UK) at 37° C. in a humidified atmosphere of 5% CO2.
To grow cysts, MDCK cells were cultured in collagen gels using a modification of the method of Grantham et al. (26). Cells were trypsinized with 0.25% (wt/vol) trypsin for 30 minutes at 37° C., diluted with MDCK media containing 10% FBS to form a suspension of between 1-3×10^4 cells ml^−1, and aliquoted into individual wells of a 24-well plate (0.1 ml per well). Each well contained 0.4 ml of ice-cold Vitrogen (3.0 mg ml^−1 collagen; Cohesion Technologies Inc., Palo Alto, USA) supplemented with 10% (vol/vol) 10× minimum essential medium, 10 mM N-[2-hydroxyethyl]piperazine-N′-[2-ethanesulphonic acid] (Hepes), 27 mM NaHCO3, 100 U ml^−1 penicillin, and 100 μg ml^−1 streptomycin, and adjusted to pH 7.4 with NaOH. The 24-well plate was gently agitated to distribute cells throughout the Vitrogen and incubated in a water bath at 37° C. for 90 minutes to promote gelation of the Vitrogen.
After gelation, 1.5 ml MDCK media containing 10% FBS was added to each well of the 24-well plate. To promote cyst growth, we added cAMP agonists (forskolin (10 μM), 3-isobutyl-1-methylxanthine (IBMX; 100 μM), and 8-(4-chlorophenylthio) adenosine 3′:5′-cyclic monophosphate (CPT-cAMP; 500 μM)) to the MDCK media. Plates were maintained at 37° C. in a humidified atmosphere of 5% CO2 and the MDCK media containing cAMP agonists changed every three days.
Twelve days after seeding collagen gels with MDCK cells, cysts were readily detected at ×1000 magnification using an inverted microscope with phase contrast optics (Leica, model DMIL, Milton Keynes, UK). To test the effect of CFTR modulators on cyst growth, drugs were added to MDCK media in the continued presence of cAMP agonists. MDCK media containing cAMP agonists and CFTR modulators was changed every 3 days for a total period of 9 days. Photographs of individual cysts were taken before the addition of CFTR modulators and at three day intervals over the duration of the experiment. To identify individual cysts, each cyst was assigned a unique reference number using a grid placed below the 24-well plate.
The diameter of cysts was measured directly from photographs of cysts using images that had been magnified by identical amounts. By assuming that cysts are spherical in shape, we calculated cyst volume ( 4/3·π·r^3).

Type I MDCK cells = assay: Proliferation of MDCK cells (cell counting); format: cell-based, canine
Experimental: as §1
To test the effect of CFTR modulators on the proliferation of MDCK cells, we used Type I MDCK cells grown in media containing 5% FBS and 1% ITS-X supplement. On day −1, MDCK cells were seeded at 7.5×10^4 cells ml^−1 in 35 mm dishes containing MDCK media with 1% FBS and 1% ITS-X supplement. On day 0, the concentration of FBS was reduced further to 0.01% and CFTR modulators added to the MDCK media. MDCK media containing CFTR modulators was changed every 2 days for a total period of 6 days. To determine the number of cells per 35 mm dish, Type I MDCK cells were harvested using trypsin (0.25% wt/vol), centrifuged at 1200 rpm for 5 min and resuspended in 1 ml of MDCK media before counting using a haemocytometer.

T1 sequence (P13569 whole entry): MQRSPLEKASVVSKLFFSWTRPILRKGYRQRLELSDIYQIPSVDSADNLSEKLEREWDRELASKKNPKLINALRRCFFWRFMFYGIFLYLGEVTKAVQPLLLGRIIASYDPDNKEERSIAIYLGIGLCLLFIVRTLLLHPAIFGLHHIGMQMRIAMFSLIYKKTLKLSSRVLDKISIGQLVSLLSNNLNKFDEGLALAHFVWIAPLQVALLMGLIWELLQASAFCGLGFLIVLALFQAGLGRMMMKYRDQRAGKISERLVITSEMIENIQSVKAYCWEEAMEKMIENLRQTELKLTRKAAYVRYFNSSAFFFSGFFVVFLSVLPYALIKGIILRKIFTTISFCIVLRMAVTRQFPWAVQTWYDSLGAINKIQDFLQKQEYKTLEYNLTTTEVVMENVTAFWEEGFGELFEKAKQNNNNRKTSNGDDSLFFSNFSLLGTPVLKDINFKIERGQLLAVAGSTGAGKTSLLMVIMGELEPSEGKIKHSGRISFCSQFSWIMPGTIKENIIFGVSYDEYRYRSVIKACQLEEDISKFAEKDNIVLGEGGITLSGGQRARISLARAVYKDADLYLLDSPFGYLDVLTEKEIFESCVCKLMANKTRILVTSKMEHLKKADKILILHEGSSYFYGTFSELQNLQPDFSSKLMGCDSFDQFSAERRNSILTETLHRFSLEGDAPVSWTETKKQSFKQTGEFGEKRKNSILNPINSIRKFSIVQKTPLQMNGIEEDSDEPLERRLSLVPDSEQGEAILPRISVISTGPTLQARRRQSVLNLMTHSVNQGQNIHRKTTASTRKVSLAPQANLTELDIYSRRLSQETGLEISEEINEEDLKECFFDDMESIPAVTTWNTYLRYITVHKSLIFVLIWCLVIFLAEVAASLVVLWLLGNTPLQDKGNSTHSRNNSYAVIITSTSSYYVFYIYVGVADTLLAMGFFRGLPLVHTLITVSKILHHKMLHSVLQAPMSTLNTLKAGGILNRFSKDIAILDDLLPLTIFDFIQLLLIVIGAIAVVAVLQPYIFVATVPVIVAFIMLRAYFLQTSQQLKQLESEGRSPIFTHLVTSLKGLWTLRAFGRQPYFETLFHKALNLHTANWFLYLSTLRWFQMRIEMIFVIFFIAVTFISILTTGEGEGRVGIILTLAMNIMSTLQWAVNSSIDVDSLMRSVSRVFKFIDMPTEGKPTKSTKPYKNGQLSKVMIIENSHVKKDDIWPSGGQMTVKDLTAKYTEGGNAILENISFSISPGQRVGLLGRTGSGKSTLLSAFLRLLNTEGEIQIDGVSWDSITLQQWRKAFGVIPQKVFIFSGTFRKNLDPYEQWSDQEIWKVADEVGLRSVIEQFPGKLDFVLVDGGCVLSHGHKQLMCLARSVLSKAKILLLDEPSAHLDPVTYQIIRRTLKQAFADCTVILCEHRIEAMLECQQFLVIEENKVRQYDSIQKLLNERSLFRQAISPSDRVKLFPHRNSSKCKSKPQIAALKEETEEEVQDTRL

O=[N+]([O-])c1ccc(C=Cc2ccc([N+](=O)[O-])cc2S(=O)(=O)O)c(S(=O)(=O)O)c1 [DIDS, 4,4′-dinitrostilbene-2,2′-disulphonic acid]
effect on activity of CFTR (wild-type human CFTR; 200 μM, added to the intracellular side): potently inhibited
cyst volume ([1]; 200 μM, P>0.5): exception
size of cysts (phase-contrast) ([1]; 200 μM): without effect on cyst growth
cell growth (number of cells), day 0 to 6 (Type I MDCK cells; 200 μM): exception

O=C(O)c1cc([N+](=O)[O-])ccc1NCCCc1ccccc1 [NPPB, 5-nitro-2-(3-phenylpropylamino)-benzoic acid]
rank order of decrease of cyst volume [1]: glibenclamide (100 μM)≧ouabain (1 μM)≧NPPB (400 μM)≧genistein (100 μM)>bumetanide
cyst volume ([1]; 400 μM): decreased cyst volume
size of cysts (phase-contrast) ([1]; 400 μM): visible decrease in the size of cysts
inhibition of cell growth in the presence of cAMP agonists (Type I MDCK cells): unaffected by cAMP agonists
rank order of prevention of cell growth (Type I MDCK cells): ouabain (1 μM)=phloxine B (40 μM)=genistein (100 μM)=NPPB (400 μM)>glibenclamide (100 μM)
cell growth (number of cells), day 0 to 6 (Type I MDCK cells; 400 μM): prevented cell growth

O=C1OC2(c3cc(I)c(O)c(I)c3Oc3c2cc(I)c(O)c3I)c2c(Cl)c(Cl)c(Cl)c(Cl)c21 [bengal rose B]
potency of CFTR inhibition compared with glibenclamide (wild-type human CFTR): potency greater than or equal to that of glibenclamide
reversibility of CFTR inhibition (wild-type human CFTR): irreversible
single-channel activity (i and/or Po) (wild-type human CFTR; 10 μM): never able to resolve discrete channel openings
rank order of potency for CFTR inhibition (wild-type human CFTR; concentration-response, FIG. 3): bengal rose B>phloxine B>eosin Y≧tetrachlorofluorescein>>fluorescein
stimulation of CFTR channel activity (wild-type human CFTR; concentration-response, FIG. 3): stimulated channel activity
cell growth (number of cells), day 0 to 6 (Type I MDCK cells; 5 μM): inhibited the proliferation

CCCCNc1cc(C(=O)O)cc(S(N)(=O)=O)c1Oc1ccccc1 [bumetanide]
rank order of decrease of cyst volume [1]: glibenclamide (100 μM)≧ouabain (1 μM)≧NPPB (400 μM)≧genistein (100 μM)>bumetanide
cyst volume ([1]; 100 μM): decreased cyst volume
cell growth (number of cells), day 0 to 6 (Type I MDCK cells; 100 μM): exception

O=C1OC2(c3ccc(O)cc3Oc3cc(O)ccc32)c2ccccc21 [fluorescein]
rank order of potency for CFTR inhibition (wild-type human CFTR; concentration-response, FIG. 3): bengal rose B>phloxine B>eosin Y≧tetrachlorofluorescein>>fluorescein

O=c1c(-c2ccc(O)cc2)coc2cc(O)cc(O)c12 [genistein]
rank order of decrease of cyst volume [1]: glibenclamide (100 μM)≧ouabain (1 μM)≧NPPB (400 μM)≧genistein (100 μM)>bumetanide
cyst volume ([1]; 100 μM): decreased cyst volume
inhibition of cell growth in the presence of cAMP agonists (Type I MDCK cells): unaffected by cAMP agonists
rank order of prevention of cell growth (Type I MDCK cells): ouabain (1 μM)=phloxine B (40 μM)=genistein (100 μM)=NPPB (400 μM)>glibenclamide (100 μM)
cell growth (number of cells), day 0 to 6 (Type I MDCK cells; 100 μM): prevented cell growth

COc1ccc(Cl)cc1C(=O)NCCc1ccc(S(=O)(=O)NC(=O)NC2CCCCC2)cc1 [glibenclamide]
effect on channel block by phloxine B (20 μM) (wild-type human CFTR; glibenclamide 50 μM): potentiated channel block
rank order of decrease of cyst volume [1]: glibenclamide (100 μM)≧ouabain (1 μM)≧NPPB (400 μM)≧genistein (100 μM)>bumetanide
cyst volume ([1]; 100 μM): decreased cyst volume
size of cysts (phase-contrast) ([1]; 100 μM): visible decrease in the size of cysts
inhibition of cell growth in the presence of cAMP agonists (Type I MDCK cells): unaffected by cAMP agonists
rank order of prevention of cell growth (Type I MDCK cells): ouabain (1 μM)=phloxine B (40 μM)=genistein (100 μM)=NPPB (400 μM)>glibenclamide (100 μM)
cell growth (number of cells), day 0 to 6 (Type I MDCK cells; 100 μM): prevented cell growth

O=C(O)c1c(Cl)c(Cl)c(Cl)c(Cl)c1-c1c2ccc(=O)cc-2oc2cc(O)ccc12 [tetrachlorofluorescein]
potency of CFTR inhibition compared with glibenclamide (wild-type human CFTR): less potently than glibenclamide
reversibility of CFTR inhibition (wild-type human CFTR): partially reversible
open probability (Po) (wild-type human CFTR; 100 μM): decreasing
single-channel current amplitude (i) (wild-type human CFTR; 100 μM): decreasing
channel block at positive voltages (wild-type human CFTR; 100 μM, symmetrical 147 mM Cl−): relieved
effect on CFTR Cl− currents at negative voltages (wild-type human CFTR; 100 μM, symmetrical 147 mM Cl−): decreased CFTR Cl^− currents
n (slope factor, Hill coefficient) of CFTR inhibition (wild-type human CFTR; ATP 0.3 mM, PKA 75 nM, −50 mV): 0.7
Ki (wild-type human CFTR; ATP 0.3 mM, PKA 75 nM, −50 mV, 37° C., drug in intracellular solution, read-out: Ki (drug concentration causing half-maximal inhibition of CFTR Cl− current, Hill plot)): 58 µM
rank order of potency for CFTR inhibition (wild-type human CFTR; concentration-response, FIG. 3): bengal rose B>phloxine B>eosin Y≧tetrachlorofluorescein>>fluorescein
voltage-dependence of CFTR inhibition (wild-type human CFTR; voltage ramp ±100 mV, symmetrical 147 mM Cl−, ATP 1 mM): voltage-dependent
cell growth (number of cells), day 0 to 6 (Type I MDCK cells; 200 μM): inhibited the proliferation
